10 molecules from article PMC7806935, “Exosite inhibition of ADAMTS-5 by a glycoconjugated arylsulfonamide” (Scientific Reports, 2021) can be followed below.

In test [1] the target is T1, ADAMTS-4 (Homo sapiens, UniProt O75173).
T1 construct: made in house
T1 sequence (O75173 213-837): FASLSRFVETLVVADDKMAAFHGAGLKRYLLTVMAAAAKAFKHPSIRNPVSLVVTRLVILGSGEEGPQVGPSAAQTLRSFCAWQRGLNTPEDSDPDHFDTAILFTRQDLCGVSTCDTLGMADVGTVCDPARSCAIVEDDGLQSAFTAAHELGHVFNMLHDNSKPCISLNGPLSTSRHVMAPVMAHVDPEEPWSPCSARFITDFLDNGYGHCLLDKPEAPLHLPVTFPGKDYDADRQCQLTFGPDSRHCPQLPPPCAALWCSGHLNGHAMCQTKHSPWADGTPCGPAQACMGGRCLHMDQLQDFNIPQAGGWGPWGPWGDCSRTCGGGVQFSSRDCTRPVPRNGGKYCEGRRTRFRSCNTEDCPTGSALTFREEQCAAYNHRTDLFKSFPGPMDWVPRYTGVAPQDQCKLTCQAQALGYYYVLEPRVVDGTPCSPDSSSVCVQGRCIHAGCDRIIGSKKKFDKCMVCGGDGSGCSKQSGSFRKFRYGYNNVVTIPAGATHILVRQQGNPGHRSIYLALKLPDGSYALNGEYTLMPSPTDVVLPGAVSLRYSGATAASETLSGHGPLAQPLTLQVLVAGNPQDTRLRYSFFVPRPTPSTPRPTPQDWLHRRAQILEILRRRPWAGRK
Put plainly: Versican digestion assay (V1-5GAG, sandwich ELISA), ADAMTS-4. The format is biochemical. Particulars: protein substrate V1-5GAG, mean ± SEM (n = 3). As to the method: (§1) All enzyme assays were conducted in TNC-B buffer (50 mM Tris–HCl, pH 7.5, 150 mM NaCl, 10 mM CaCl2, and 0.02% NaN3) at 37 °C. To avoid the formation of inhibitor aggregates, the detergent Brij-35 (0.05%) was added to the assay buffer. No aggregation was visually observed at concentrations up to 2 mM. The inhibitor stock solutions in DMSO (10 mM) were diluted at different concentrations in assay buffer and incubated with ADAMTS-4 or ADAMTS-5 for 2 h at 37 °C. Percent of inhibition was calculated from control reactions containing only DMSO. IC50 values were determined using the formula: vi/v0 = 1/(1 + [I]/IC50) where vi is the initial velocity of substrate cleavage in the presence of the inhibitor at concentration [I] and v0 is the initial velocity in the presence of an equal concentration (v/v) of DMSO.
(§2) ADAMTS-5 full-length (FL) (final concentration 0.4 nM), ADAMTS-5 MDTCS (0.4 nM) ADAMTS-5 MD (26 nM) or ADAMTS-4 (5.5 nM) were incubated with different concentrations of inhibitors or DMSO for 2 h at 37 °C in TNC-B buffer before addition of V1-5GAG (50 nM). At different time points (0–20 min), sub-samples were removed and reactions were stopped with EDTA. Maxisorp plates (VWR, Lutterworth, UK) were coated with 5 μg/mL anti-DPEEAE neoepitope antibody (Cat n. PA1-1748A, Life Technologies, Paisley, UK) in carbonate buffer pH 9.6 (16 h, 4 °C). This neoepitope antibody specifically recognizes the N-terminal versican fragment versikine, generated when ADAMTS-5 cleaves versican at the Glu441↓442Ala bond. Washing steps were performed in triplicate with 300 μL phosphate buffered-saline (PBS) containing 0.1% Tween-20 between each step. Plates were blocked with 3% bovine serum albumin (BSA)/PBS for 2 h, at RT. The samples from the digestion experiments were diluted in 3% BSA/PBS and added to the plate (100 μL, 2 h, RT). Bound versikine fragments were detected using anti-G1 monoclonal antibody (Cat n. ab171887, Abcam, Cambridge, UK) (3 μg/mL in 0.5% BSA/PBS, 1.5 h, RT), followed by horseradish peroxidase (HRP)-conjugated anti-mouse antibodies (Cat. N. P044701-2, Agilent Technologies LTD, Cheadle, UK) (2.4 μg/mL, 1 h, RT). The assay was developed by addition of o-phenylenediamine dihydrochloride (OPD, Cat n. 34006, Sigma Aldrich, Gillingham, UK) for 10 min and reactions were stopped with 2 M H2SO4. The absorbance was measured at 492 nm using a BioTeK Epoch (BioTek, Swindon, UK) plate reader. For each dilution, the amount of neoepitope generated was derived from a standard curve (0–1.56 nM) of V1-5GAG completely digested with ADAMTS-5. Initial velocities were calculated from the concentration of versikine generated as a function of reaction time and IC50 values were determined.
(§3) For inhibition studies, initial rates of proteolysis (< 20% cleavage) were analyzed between 0 and 20 min. For determination of the specificity constants (kcat/Km), digestion reactions were allowed to occur to completion (0–2 h). Data were analyzed as previously described.

Test [2] has as its target T2, ADAMTS-5 (Homo sapiens, UniProt Q9UNA0).
T2 construct: made in house
T2 sequence (Q9UNA0 262-930): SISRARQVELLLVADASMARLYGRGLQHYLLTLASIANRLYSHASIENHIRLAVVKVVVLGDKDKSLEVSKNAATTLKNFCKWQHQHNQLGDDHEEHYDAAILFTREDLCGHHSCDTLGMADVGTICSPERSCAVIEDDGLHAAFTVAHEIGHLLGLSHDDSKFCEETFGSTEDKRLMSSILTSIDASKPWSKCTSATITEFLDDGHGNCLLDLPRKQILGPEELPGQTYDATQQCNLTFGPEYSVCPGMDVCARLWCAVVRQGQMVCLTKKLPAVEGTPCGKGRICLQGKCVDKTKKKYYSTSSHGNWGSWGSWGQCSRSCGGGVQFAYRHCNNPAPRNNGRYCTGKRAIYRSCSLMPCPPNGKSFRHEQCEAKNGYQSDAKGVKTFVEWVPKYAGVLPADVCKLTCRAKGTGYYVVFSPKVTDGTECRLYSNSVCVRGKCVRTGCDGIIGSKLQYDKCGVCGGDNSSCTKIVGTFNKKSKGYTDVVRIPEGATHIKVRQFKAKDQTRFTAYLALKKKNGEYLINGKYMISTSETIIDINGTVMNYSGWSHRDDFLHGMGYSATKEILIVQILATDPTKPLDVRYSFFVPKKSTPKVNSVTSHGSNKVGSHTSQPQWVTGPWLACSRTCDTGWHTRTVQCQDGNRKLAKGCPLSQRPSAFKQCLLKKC
Put plainly: Versican digestion assay (V1-5GAG, sandwich ELISA), ADAMTS-5. The format is biochemical. The following applies: for IC50: protein substrate V1-5GAG, mean ± SEM (n = 3). As to the method: as §1, §2, §3

The target in test [3] is T1, ADAMTS-4. The test is described as follows: QF peptide cleavage assay, ADAMTS-4. The following applies: 12-residue QF peptide substrate; mean ± SEM (n = 3); read-out: IC50 (μM) QF peptide ATS4. In kind it is biochemical. How it is done:
as §1
(§4) QF peptide cleavage assays were conducted in 96-well black microtiter plates (Scientific Laboratories Supplies Ltd, Wilford, UK) using a Fluostar Omega microplate reader (BMG Labtech, Aylesbury, UK). The activity of ADAMTS-4 (1 nM) and -5 (5 nM) was monitored for 2 h using the fluorescent peptide substrates fluorescein 5(6)-carbonyl-Ala-Glu-Leu-[…]-Gly-Arg-Pro-Ile-Ser-Ile-Ala-Lys-N,N,N0,N0-tetramethyl-6-carboxyrhodamine-NH2 (FAM-AE ~ LQGRPISIAK-TAMRA, ADAMTS-4) and fluorescein 5(6)-carbonyl-Thr-Glu-Ser-Glu ~ Ser-Arg-Gly-Ala-Ile-Tyr-Lys-Lys-N,N,N0,N0-tetramethyl-6-carboxyrhodamine-NH2 (FAM-TESE ~ SRGAIYKK-TAMRA, ADAMTS-5) (custom-synthesized by Bachem, Bubendorf, Switzerland) with an excitation wavelength of 485 nm and an emission wavelength of 538 nm. Final substrate concentrations were 1 μM and 40 μM for ADAMTS-4 and -5, respectively. Fluorescence was expressed in relative fluorescence units (RFU) and normalized against a blank containing only buffer and substrate. Emission spectra were recorded at several concentrations of each compound to exclude auto-fluorescence and maximal inhibitor concentrations were selected accordingly.

Test [4] addresses T2, ADAMTS-5. Put plainly: QF peptide cleavage assay, ADAMTS-5. In kind it is biochemical. Particulars: 12-residue QF peptide substrate; mean ± SEM (n = 3); read-out: IC50 (μM) QF peptide ATS5. How it is done:
as §1, §4

Test [5] concerns the target V1-5GAG, a truncated versican V1 variant (UniProt P13611).
[6] abbreviates: read-out: IC50 (μM) V1-5GAG ATS4.
Setting [7] is: read-out: IC50 (μM) V1-5GAG ATS5.

As to `CCC(C)N(Cc1cn(C2OC(CO)C(O)C(O)C2NC(C)=O)nn1)S(=O)(=O)c1ccc(-c2ccccc2)cc1` (mixture of isomers) [Compound 3b], the IC50 (as a rule, the point on the concentration scale where inhibition reaches its midpoint) came out at 50 ± 16 µM in test [1] (read-out: IC50 (μM) ADAMTS-4) and 120 ± 20 µM in test [2] (read-out: IC50 (μM) ADAMTS-5). Also, the “reduction in inhibition of ADAMTS-5 versicanase activity” value in test [2] (sugar directly linked to the sulfonamide scaffold, compared with n-propyloxy link) is recorded as ~ 13 fold.
As to `CCC(C)N(Cc1cn(CCCOC2OC(CO)C(O)C(O)C2NC(C)=O)nn1)S(=O)(=O)c1ccc(OCc2ccc(F)cc2Cl)cc1` (mixture of isomers) [Compound 4c], the IC50 was 90 ± 44 µM in test [1] (setting [6]), 62 ± 12 µM in test [2] (setting [7]), greater than 50 µM in test [3] and 57 ± 10 µM in test [4]. Moreover, in test [2] (benzyloxyphenyl compound compared to 4b), the “reduction in inhibitory properties” value was found to be 6 fold.
For the molecule `CCC(C)N(Cc1cn(CCCOC2OC(CO)C(O)C(O)C2NC(C)=O)nn1)S(=O)(=O)c1ccc(OCc2ccccc2)cc1` (mixture of isomers) [Compound 4d], the IC50 in test [1] (setting [6]) was 180 ± 50 µM; in test [2] (setting [7]), 90 ± 23 µM; in test [3], greater than 50 µM; in test [4] it was greater than 50 µM.
As to `CC(=O)N[C@@H]1[C@@H](O)[C@H](O)[C@@H](CO)O[C@H]1n1cc(CN([C@@H](C(=O)OCc2ccccc2)C(C)C)S(=O)(=O)c2ccc(-c3ccccc3)cc2)nn1` [Compound 3a], the IC50 in test [1] (read-out: IC50 (μM) ADAMTS-4) and in test [2] (read-out: IC50 (μM) ADAMTS-5) was greater than 50 µM each time.
`CC(=O)N[C@H]1[C@H](OCCCn2cc(CN([C@@H](C(=O)OCc3ccccc3)C(C)C)S(=O)(=O)c3ccc(-c4ccccc4)cc3)nn2)O[C@H](CO)[C@@H](O)[C@@H]1O` [Compound 4a]: the IC50 in test [1] (read-out: IC50 (μM) ADAMTS-4) and in test [2] (read-out: IC50 (μM) ADAMTS-5) was greater than 50 µM each time.
For the molecule “ADAMTS-5 MDTCS (lacking the C-terminal TS motif) (enzyme)”, the kcat/Km for proteolysis of V1-5GAG (time course at 50 nM substrate, versikine by sandwich ELISA) in test [5] stood at 3.23e+06 M⁻¹ s⁻¹.
Turning to ADAMTS-5 MDTCS K532A/K533A (enzyme), the kcat/Km for proteolysis of V1-5GAG (time course at 50 nM substrate, versikine by sandwich ELISA) in test [5] worked out at 675000 M⁻¹ s⁻¹.
With ADAMTS-5 MDTCS K532Q/K533Q (enzyme), the kcat/Km for proteolysis of V1-5GAG (time course at 50 nM substrate, versikine by sandwich ELISA) in test [5] amounted to 401000 M⁻¹ s⁻¹.
The same measure, in the same setting: in the case of ADAMTS-5 MDTCS K533A (enzyme) it was 1.25e+06 M⁻¹ s⁻¹; in that of ADAMTS-5 MDTCS K533H (enzyme), 1.56e+06 M⁻¹ s⁻¹.
